The text below walks through data of publication PMC4145321, “Synthesis and Biological Evaluation of Novel 3-Alkylpyridine Marine Alkaloid Analogs with Promising Anticancer Activity” (Marine Drugs, 2014).

The subject of data set [1] is HeLa cells (cervix adenocarcinoma). Nature of the data set: MTT cytotoxicity assay, HeLa. Conditions: for IC50: Homo sapiens, HeLa, MTT, 48 h incubation, triplicate, average ± SD; for Selectivity Index (SI) HeLa: ratio of IC50 WI-26VA4 and IC50 HeLa. Type of data set: cell-based, human. The protocol:
(§1) The cytotoxicity of the compounds was assessed with the human cell lines, HeLa (cervix adenocarcinoma ATCC# CCl-2), RKO-AS-45-1 (colon carcinoma ATCC# CRL-2579) and WI-26 VA4 (fibroblast ATCC# CCL-95.1) using the MTT (3-(4,5-dimethylthiazol-2-yl)-2,5-diphenyltetrazolium bromide) (Sigma, St. Louis, MO, USA) colorimetric method. Briefly, the cells were plated in 96-well plates (1 × 10^5 cells/well) and incubated for 24 h at 37 °C in a humidified atmosphere with 5% CO2. After 24 h, the wells were washed with culture medium (RPMI +10% inactivated fetal calf serum + 2 mM L-glutamine) and incubated with the compounds at various concentrations (0.05 to 500 μM). After 48 h of incubation, the plates were treated with MTT. The colorimetric measurement was performed at 550 nm using the microplate reader, Spectramax M5e (Molecular Devices, Sunnyvale, CA, USA). Cytotoxicity was scored as the percent reduction in absorbance versus untreated control cultures. All experiments were performed in triplicate. The results are expressed as the mean of the IC50 (the lethal drug concentration that reduced cell viability by 50%). The IC50 values were calculated using OriginPro 8.0 (OriginLab Corporation, Northampton, MA, USA) software. A selectivity index (SI), corresponding to the ratio between the cytotoxic activities of each compound against the HeLa and RKO-AS-45-1 cell lines and the cytotoxicity against WI-26 VA4, was calculated as follows: […]
A general note: Tetrazolium assays rely on reduction of a dye to a coloured formazan, in cell work by metabolically active cells.

The subject of data set [2] is RKO-AS-45-1 cells (colon carcinoma). Put plainly: MTT cytotoxicity assay, RKO-AS-45-1. Type of data set: cell-based, human. Conditions: for IC50: Homo sapiens, RKOAS451, MTT, 48 h incubation, triplicate, average ± SD; for Selectivity Index (SI) RKO AS-45-1: ratio of IC50 WI-26VA4 and IC50 RKO-AS-45-1. The protocol:
as §1

In data set [3] the test system is RKO-AS-45-1 cells. Nature of the data set: Frequency of binucleation (mitotic index). It is filed as cell-based, human. Conditions: 300 cells counted. The protocol:
The influence of the synthetic alkaloids on cell division was assessed by calculating the frequency of binucleation in RKO-AS-45-1 cells. The same slides prepared for the micronucleus assay were used, and 300 cells with a well-preserved cytoplasm were counted using fluorescence microscopy, as described above. The frequency of binucleated cells was calculated as the proportion (percentage) of cells undergoing complete cell division after exposure to digoxin and controls.

For data set [4], the system named is RKO-AS-45-1 cells. Nature of the data set: TUNEL apoptosis assay, RKO-AS-45-1. Conditions: 48 h; 4c at 5.1 μM, 5c at 19.1 μM. Type of data set: cell-based, human. The protocol: (§2) Apoptotic cell death was measured using the APO-BrdU TUNEL assay kit (Invitrogen, Carlsbad, CA, USA). Briefly, the effect of Compounds 4c and 5c and etoposide on DNA fragmentation was determined using Hela and RKO-AS-45-1 cells. The cells were incubated with the compounds for 48 h, as described above, and fixed using a solution of ice-cold 70% ethanol. The cells were then counterstained with 5-bromo-2′-deoxyuridine 5′-triphosphate (BrdUTP) in the presence of terminal deoxynucleotidyl transferase (TdT) and stained with an anti-BrdU monoclonal antibody-PRB-1 Alexa Fluor 488 conjugate, as previously described. The loaded cells were visualized by fluorescence microscopy using a Zeiss Axiovert 200 (Carl Zeiss, Oberkochen, Germany).

Data set [5] has as its system RKO-AS-45-1 cells. Nature of the data set: Cytokinesis-block micronucleus assay. Type of data set: cell-based, human. Particulars: 3 h treatment. The protocol: To assess the potential of the synthetic alkaloids to induce DNA damage (chromosomal mutations) in vitro, the cytokinesis-block micronucleus assay was performed in the RKO-AS-45-1 cell line. The procedures were developed as described by Fenech, with adaptations. Briefly, the cells were seeded in 24-well plates (2.5 × 10^5 cells/well) and maintained at 37 °C in a humid atmosphere with 5% CO2. After 24 h, the cells were washed twice with PBS, and the treatments were performed in culture media without serum for three hours. Each treatment was performed in triplicate. The negative control group was treated with PBS, and a positive control group was established with the treatment of the cells with methyl methanesulfonate (MMS—400 μM).
After completing treatments with three concentrations lower than the IC50 of Compounds 4c (4.8, 9.6 and 14.3 μM) and 5c (5.9, 11.8, and 17.8 μM) diluted in culture media, the cells were washed twice with PBS, trypsinized and centrifuged for 5 min at 1200 rpm. The pellet was then resuspended in chilled hypotonic solution (1% sodium citrate) together with one drop of 1% formaldehyde and carefully homogenized with a Pasteur pipette. This cell suspension was centrifuged for 5 min at 1200 rpm and resuspended in 5 mL of fixative, methanol/acetic acid (3:1 v/v). Next, the tubes were centrifuged for 5 min, and the supernatant was discarded; the cell suspension was spread onto slides previously cleaned and covered with a film of chilled distilled water.
At the moment of cytogenetic analysis, the slides were stained with DAPI (4′,6-diamidino-2-phenylindole) diluted in phosphate buffer (0.06 M Na2HPO4 and 0.06 M KH2PO4, pH 6.8) for 2 min, washed with distilled water and analyzed under a fluorescent microscope (Zeiss, Axioscope) with an excitation filter of 365 nm and a barrier filter of 445/450 nm. Two thousands cells with a well-preserved cytoplasm were analyzed for each treatment in a blind test. Cells containing 1–3 micronuclei were scored. The criterion for the identification of MNs was according to a previous report. […]

The next data set concerns HeLa cells. Put plainly: TUNEL apoptosis assay, HeLa. Particulars: 48 h; 4c at 19.1 μM, 5c at 8.5 μM. It is filed as cell-based, human. The protocol: as §2
Data set [6] deals with WI-26VA4 cells (lung fibroblast, non-cancerous). Nature of the data set: MTT cytotoxicity assay, WI-26VA4. Type of data set: cell-based. Conditions: Homo sapiens, WI26VA4, 48 h incubation, triplicate, average ± SD. The protocol:
The cytotoxicity of the compounds was assessed with the human cell lines, HeLa (cervix adenocarcinoma ATCC# CCl-2), RKO-AS-45-1 (colon carcinoma ATCC# CRL-2579) and WI-26 VA4 (fibroblast ATCC# CCL-95.1) using the MTT (3-(4,5-dimethylthiazol-2-yl)-2,5-diphenyltetrazolium bromide) (Sigma, St. Louis, MO, USA) colorimetric method. Briefly, the cells were plated in 96-well plates (1 × 10^5 cells/well) and incubated for 24 h at 37 °C in a humidified atmosphere with 5% CO2. After 24 h, the wells were washed with culture medium (RPMI +10% inactivated fetal calf serum + 2 mM L-glutamine) and incubated with the compounds at various concentrations (0.05 to 500 μM). After 48 h of incubation, the plates were treated with MTT. The colorimetric measurement was performed at 550 nm using the microplate reader, Spectramax M5e (Molecular Devices, Sunnyvale, CA, USA). Cytotoxicity was scored as the percent reduction in absorbance versus untreated control cultures. All experiments were performed in triplicate. […] The IC50 values were calculated using OriginPro 8.0 (OriginLab Corporation, Northampton, MA, USA) software. A selectivity index (SI), corresponding to the ratio between the cytotoxic activities of each compound against the HeLa and RKO-AS-45-1 cell lines and the cytotoxicity against WI-26 VA4, was calculated as follows: SI = […].

Data set [7] has as its system actin cytoskeleton of RKO-AS-45-1 cells. Put plainly: Actin polymerization by fluorescence microscopy. Conditions: 19.1 μM, 24 h, phalloidin Alexa Fluor 488. Type of data set: cell-based, human. The protocol: The control with non-treated cells was included in parallel. After 24 h, the cells were rinsed in phosphate-buffered saline (PBS) for 3 min, fixed in paraformaldehyde (#15,812-7, Sigma) at 4% in PBS for 1 h and permeabilized with 0.1% Triton X-100 (#17-1315-01, Plusone, GE Healthcare, Fairfield, CA, USA) in PBS for 10 min. The RKO-AS-45-1 cells were labeled with Phalloidin Alexa Fluor® 488 (#A12379, Molecular Probes, Eugene, OR, USA), and the nuclei were counterstained with 4,6-diaminidino-2-phenylindole (DAPI; Molecular Probes, #D1306) according to the manufacturer’s instructions. Image acquisition was performed using an AxioVert 200 microscope (Carl Zeiss, Oberkochen, Germany).

“Also recorded” adds a separate entry of the source. A value given as a limit tells only on which side of the number the result lay.

As usually defined, the IC50 is the concentration needed to halve the response being measured. The low end stands for inhibition by little substance, the high end for a need for much substance. On to `c1cncc(CCCOCCCCCCOC2CCCCO2)c1` (stereo not shown) [Compound 4a, 1-[3-(pyridin-3-yl)propoxy]-6-(oxan-2-yloxy)hexane], for which the IC50 in data set [1] and in data set [2] was above 300 µM each time.
Regarding `c1cncc(CCCOCCCCCCCCOC2CCCCO2)c1` (stereo not shown) [Compound 4b, 1-[3-(pyridin-3-yl)propoxy]-8-(oxan-2-yloxy)octane], in data set [1], it took 8.1 ± 2.7 µM to reach half-maximal inhibition (IC50) and the “Selectivity Index (SI) HeLa” value was determined as 4.66. Further, in data set [2], inhibition was half-maximal at 23.7 ± 1.7 µM (IC50) and the “Selectivity Index (SI) RKO AS-45-1” value is recorded as 1.59.
For the compound `c1cncc(CCCOCCCCCCCCCCOC2CCCCO2)c1` (stereo not shown) [Compound 4c, 1-[3-(pyridin-3-yl)propoxy]-10-(oxan-2-yloxy)decane], the values for the IC50 in data set [1] and in data set [2] were 4 ± 0.8 µM and 5.1 ± 1.1 µM, respectively. Also, the “Selectivity Index (SI) HeLa” value in data set [1] was 1.60. The “Frequency of binucleation vs negative control” value with RKO-AS-45-1 cells [3] (two highest concentrations assessed) was “reduced the binucleation frequency”. Further, the “Apoptosis induction (TUNEL)” value in the data set with RKO-AS-45-1 cells [4] and in the data set with HeLa cells was “promoted apoptosis” each time. The “Micronucleus frequency vs control” value in the data set with RKO-AS-45-1 cells [5] (2.5 and 4.0 μM (two highest concentrations), 2000 binucleated cells, p < 0.05) is given as “significantly higher than that detected in the control; also recorded: statistically higher than that identified in the control group”; in the data set with RKO-AS-45-1 cells [5] (lower concentrations evaluated), “did not induce significant alterations in the MN frequency”. The “Selectivity Index (SI) RKO AS-45-1” value in data set [2] stood at 1.25.
`c1cncc(CCCOCCCCCCCCCCCCOC2CCCCO2)c1` (stereo not shown) [Compound 4d, 1-[3-(pyridin-3-yl)propoxy]-12-(oxan-2-yloxy)dodecane]: in data set [1], 9.4 ± 0.7 µM corresponded to half-maximal inhibition (IC50) and the “Selectivity Index (SI) HeLa” value was 1.20. Besides, in data set [2], the midpoint of inhibition, the IC50, lay at 3.2 ± 1.7 µM and the “Selectivity Index (SI) RKO AS-45-1” value turned out to be 3.53.
With `OCCCCCCOCCCc1cccnc1` [Compound 5a, 6-[3-(pyridin-3-yl)propoxy]hexan-1-ol], the IC50 in data set [1] and in data set [2] was above 400 µM throughout.
As for `OCCCCCCCCOCCCc1cccnc1` [Compound 5b, 8-[3-(pyridin-3-yl)propoxy]octan-1-ol], the IC50 in data set [6] was 167 ± 10.5 µM; in data set [1] it was 192 ± 10.1 µM; in data set [2] it was above 300 µM. Moreover, in data set [1], the “Selectivity Index (SI) HeLa” value is listed as 0.87.
Take `OCCCCCCCCCCOCCCc1cccnc1` [Compound 5c, 10-[3-(pyridin-3-yl)propoxy]decan-1-ol]: in data set [1], it took 8.5 ± 2.4 µM to reach half-maximal inhibition (IC50) and the “Selectivity Index (SI) HeLa” value is on record as 11.65. Also, the “Frequency of binucleation / proliferation rate vs control” value with RKO-AS-45-1 cells [3] (highest concentration assessed, p < 0.05) is given as “reduced the proliferation rate; also recorded: induced a reduction in the proliferation rate”. Also, the “Apoptosis induction (TUNEL)” value with RKO-AS-45-1 cells [4] is given as “promoted apoptosis”. Further, in the data set on RKO-AS-45-1 cells [5] (17.8 μM (highest concentration), 2000 binucleated cells, p < 0.05), the “Micronucleus frequency vs control” value is “significantly higher than that found in the control; also recorded: statistically higher than that identified in the control group”. The “Effect on actin cytoskeleton / actin polymerization” value in data set [7] is recorded as “actin polymerization is altered; also recorded: accentuated alteration of the cellular actin network”. For the same compound, the “Apoptosis induction (TUNEL)” value with HeLa cells is on record as “promoted apoptosis”. In data set [2], it took 19.1 ± 4.4 µM to reach half-maximal inhibition (IC50) and the “Selectivity Index (SI) RKO AS-45-1” value came out at 5.18.
As for `OCCCCCCCCCCCCOCCCc1cccnc1` [Compound 5d, 12-[3-(pyridin-3-yl)propoxy]dodecan-1-ol], in data set [1], it took 8.8 ± 1.9 µM to reach half-maximal inhibition (IC50) and the “Selectivity Index (SI) HeLa” value was determined as 3.87. Moreover, in data set [2], inhibition was half-maximal at 132 ± 16.8 µM (IC50) and the “Selectivity Index (SI) RKO AS-45-1” value is listed as 0.25.
Turning to `COc1cc([C@@H]2c3cc4c(cc3[C@@H](O[C@@H]3O[C@@H]5CO[C@@H](C)O[C@H]5[C@H](O)[C@H]3O)[C@H]3COC(=O)[C@H]23)OCO4)cc(OC)c1O` [Etoposide, reference compound], the IC50 in data set [1] was found to be 2.7 ± 0.4 µM; in data set [2], 1.4 ± 0.6 µM.
